# Like-named read-outs stand apart in the source and are kept apart here.
# Experiments:
# [1] = test system: maximal electroshock seizure (MES) in rats; test: Maximal electroshock seizure (MES) test, rats, p.o.; format: in vivo, rat (Sprague-Dawley); details: for ED50: Rattus norvegicus, po, MES test, read-out: ED50; for % protection (lowest and highest) during 4 hour period: 4 rats per point
# Description: (§1) The (+) AAP enantiomers obtained by optical resolution of racemic AAPs and the resulting highly orally effective anticonvulsant compositions of this invention are useful in the treatment of convulsive disorders. […] A series of (+) AAP enantiomers and (-) AAP enantiomers of this invention has been evaluated for anticonvulsant activity by the intraperitoneal (i.p.) and by the oral (p.o.) route using two standard seizure models in the mouse and in the rat, the maximal electroshock seizure (MES) test and the subcutaneous pentylenetetrazol (Metrazole) seizure threshold (scMet) test. […] The following Table 2 presents the results of these anticonvulsant tests with respect to several (+) and (-) AAP enantiomeric compounds derived from optical resolution of racemic AAPs of the present invention. This Table 2 identifies the specific compounds tested by their chemical name and provides the test model, the route of administration, the animal species used, and the anticonvulsant activity and toxicity in terms of ED50 and TD50 values, (the median effective and toxic dose respectively), when intraperitoneally administered to mice, and when orally administered to rats. The Maximal Electroshock Seizure Test (MES): Maximal electroshock seizures are elicited with a 60 Hz alternating current of 50 mA intensity in mice and about 150 mA intensity in rats (5-7 times that necessary to elicit minimal electroshock seizures), delivered for 0.2 sec via corneal electrodes. A drop of 0.9% saline is instilled in the eye prior to application of the electrodes in order to […]. Abolition of the hind limb tonic extension component of the seizure is defined as protection and results are expressed as number of animals protected/number of animals tested. The Subcutaneous Pentylenetetrazol (Metrazole) Seizure Threshold Test (scMet): A 0.5% solution of 85 mg/kg of pentylenetetrazol is administered subcutaneously in the posterior midline 30 minutes or 4 hours after drug administration to the animal. […] This species will be the subject of the complete anticonvulsant quantification test evaluation as described above, but after oral (gavage) administration of the candidate compound.
# [2] = Neurological deficit, positional sense test and gait and stance test, rats, p.o.; parameters: species or system rat (Sprague-Dawley); details: rat, in vivo, po
# Procedure: Neurotoxicity is determined by the rotorod ataxia test in mice and by the positional sense test and gait and stance test in the rat. The following Table 2 presents the results of these anticonvulsant tests with respect to several (+) and (-) AAP enantiomeric compounds derived from optical resolution of racemic AAPs of the present invention. This Table 2 identifies the specific compounds tested by their chemical name and provides the test model, the route of administration, the animal species used, and the anticonvulsant activity and toxicity in terms of ED50 and TD50 values, (the median effective and toxic dose respectively), when intraperitoneally administered to mice, and when orally administered to rats. […] This species will be the subject of the complete anticonvulsant quantification test evaluation as described above, but after oral (gavage) administration of the candidate compound. […] Neurological deficit in rats is examined by the positional sense test and gait and stance test. […] Inability to do so rapidly indicates a neurologic deficit. In the gait and stance test, a neurologic deficit is indicated by a circular or a zigzag gait, ataxia, abnormal spread of the legs, abnormal body posture, tremor, hyperactivity, lack of exploratory behavior, somnolence, stupor, or catalepsy.
# [3] = test system: maximal electroshock seizure (MES) in mice; test: Maximal electroshock seizure (MES) test, mice, i.p.; format: in vivo, mouse (male Carworth Farms #1); details: for % protection: 100 mg/kg; for % protection / P.I. (protective index, TD50/ED50): MES; for ED50: MES test
# Description: as §1, with “rats. In mice, i.p.: All compounds are emulsified in 0.5% methylcellulose. The solvent has been tested for anticonvulsant and toxic effects and found to introduce no significant bias into the testing of anticonvulsant activity. The compounds are administered intraperitoneally in a volume of 0.01 ml/gm to male Carworth Farms #1 mice weighing about 20 gm. All compounds are tested at least at three dose levels (30, 100 and 300 mg/kg) at 30 minutes and 4 hours after their administration.” for “rats.”, “Anticonvulsant Quantification in Mice i.p.: The ED50 values are determined in” for “This species will be”, “MES, scMet and rotorod ataxia test. To determine the ED50 values, five logarithmically spaced doses” for “subject”, “the” for “the complete anticonvulsant quantification”, “compound are administered to animals (male Carworth Farms #1 mice) in groups of eight, to cover 0-100% protection, and the dose required to protect 50%” for “evaluation as described above, but after oral (gavage) administration”, “animals (ED50) together with its 95% confidence limits, is determined graphically.” for “candidate compound.”
# [4] = test system: neurotoxicity (rotorod ataxia) in mice; test: Neurotoxicity, rotorod ataxia test, mice, i.p.; parameters: species or system mouse (male Carworth Farms #1); details: mouse, in vivo, ip
# Procedure: Neurotoxicity is determined by the rotorod ataxia test in mice and by the positional sense test and gait and stance test in the rat. The following Table 2 presents the results of these anticonvulsant tests with respect to several (+) and (-) AAP enantiomeric compounds derived from optical resolution of racemic AAPs of the present invention. This Table 2 identifies the specific compounds tested by their chemical name and provides the test model, the route of administration, the animal species used, and the anticonvulsant activity and toxicity in terms of ED50 and TD50 values, (the median effective and toxic dose respectively), when intraperitoneally administered to mice, and when orally administered to rats. In mice, i.p.: All compounds are emulsified in 0.5% methylcellulose. The solvent has been tested for anticonvulsant and toxic effects and found to introduce no significant bias into the testing of anticonvulsant activity. The compounds are administered intraperitoneally in a volume of 0.01 ml/gm to male Carworth Farms #1 mice weighing about 20 gm. All compounds are tested at least at three dose levels (30, 100 and 300 mg/kg) at 30 minutes and 4 hours after their administration. Neurotoxicity is evaluated in mice by the rotorod ataxia test. The animal is placed on a wooden rod of 1 and 1/8 diameter rotating at 6 rpm. Normal mice can remain on a rod rotating at this speed indefinitely. […] Anticonvulsant Quantification in Mice i.p.: The ED50 values are determined in the MES, scMet and rotorod ataxia test. To determine the ED50 values, five logarithmically spaced doses of the test compound are administered to animals (male Carworth Farms #1 mice) in groups of eight, to cover 0-100% protection, and the dose required to protect 50% of the animals (ED50) together with its 95% confidence limits, is determined graphically.
# [5] = rat, p.o. for racemic AAPs, MES
smiles,measurement,setting,value
"CC(Nc1ccc(Cl)c(Cl)c1)c1ccncc1 (racemic) [N-(3,4-Dichlorophenyl)-1-(4-pyridyl)ethylamine, reference compound]","P.I. (protective index, TD50/ED50)",[1]; [5],> 16.8
same,TD50,[2],> 500 mg/kg
"CCC(Nc1ccc(Cl)c(Cl)c1)c1ccncc1 (racemic) [N-(3,4-Dichlorophenyl)-1-(4-pyridyl)propylamine, reference compound]",% protection (lowest and highest) during a 4-hour period,"[1]; rat, p.o. for racemic AAPs, 30 mg/kg, 5 time points 0.25-4 hours, MES",0-50%
"CC(Nc1cccc(Cl)c1)c1ccncc1 (racemic) [N-(3-Chlorophenyl)-1-(4-pyridyl)ethylamine, reference compound]",ED50,[1]; p.o. for racemic AAPs,34 mg/kg
same,"P.I. (protective index, TD50/ED50)",[1]; [5],> 14.7
same,TD50,[2],> 500 mg/kg
"CC(Nc1ccc(Br)cc1)c1ccncc1 (racemic) [N-(4-Bromophenyl)-1-(4-pyridyl)ethylamine, reference compound]",ED50,[1]; p.o. for racemic AAPs,20.9 mg/kg
same,"P.I. (protective index, TD50/ED50)",[1]; [5],> 23.9
same,TD50,[2],> 500 mg/kg
"CC(Nc1ccc(Cl)cc1)c1ccncc1 (racemic) [N-(4-Chlorophenyl)-1-(4-pyridyl)ethylamine, reference compound]",ED50,[1]; p.o. for racemic AAPs,22.9 mg/kg
same,"P.I. (protective index, TD50/ED50)",[1]; [5],> 20.5
same,TD50,[2],> 470 mg/kg
"CCC(Nc1ccc(Cl)cc1)c1ccncc1 (racemic) [N-(4-Chlorophenyl)-1-(4-pyridyl)propylamine, reference compound]",ED50,[1]; p.o. for racemic AAPs,25 mg/kg
same,"P.I. (protective index, TD50/ED50)",[1]; [5],> 20
same,TD50,[2],> 500 mg/kg
"CC(Nc1cccc(Cl)c1)c1ccncc1 (single isomer, unassigned; (+)) [Compound 3, (+) N-(3-Chlorophenyl)-1-(4-pyridyl)ethylamine]",% protection (lowest and highest) during 4 hour period,"[1]; rat, p.o., 30 mg/kg, 5 time points 0.25-4 hours, MES, listed as (2) (+) Enantiomer, 30 mg/kg",25-75%
same,% protection,[3]; listed as (2) (+) Enantiomer,67%
"CC(Nc1ccc(Br)cc1)c1ccncc1 (single isomer, unassigned; (+)) [Compound 11, (+) N-(4-Bromophenyl)-1-(4-pyridyl)ethylamine]",ED50,[1]; p.o.,9.3 mg/kg
same,"P.I. (protective index, TD50/ED50)","[1]; rat, p.o., MES",> 53.7
same,TD50,[2],> 500 mg/kg
same,TD50,[4],133.9 mg/kg
same,ED50,[3]; listed as (6) (+) Enantiomer,34.7 mg/kg
same,"P.I. (protective index, TD50/ED50)",[3]; listed as (6) (+) Enantiomer,3.9
"CC(Nc1cccc(Cl)c1)c1ccncc1 (single isomer, unassigned; (-)) [Compound 4, (-) N-(3-Chlorophenyl)-1-(4-pyridyl)ethylamine]",ED50,[1]; p.o.,29.6 mg/kg
same,% protection (lowest and highest) during 4 hour period,"[1]; rat, p.o., 30 mg/kg, 5 time points 0.25-4 hours, MES, listed as (2) (-) Enantiomer",50-100%
same,"P.I. (protective index, TD50/ED50)","[1]; rat, p.o., MES",> 2.1
same,TD50,[2],> 62.5 mg/kg
same,% protection,[3]; listed as (2) (-) Enantiomer,33%
"CC(Nc1ccc(Cl)c(Cl)c1)c1ccncc1 (single isomer, unassigned; (-)) [Compound 6, (-) N-(3,4-Dichlorophenyl)-1-(4-pyridyl)ethylamine]",% protection (lowest and highest) during 4 hour period,"[1]; rat, p.o., 30 mg/kg, 5 time points 0.25-4 hours, MES, listed as (3) (-) Enantiomer",25-75%
same,TD50,[4],279.2 mg/kg
same,ED50,[3]; listed as (3) (-) Enantiomer,125.4 mg/kg
same,"P.I. (protective index, TD50/ED50)",[3]; listed as (3) (-) Enantiomer,2.2
"CCC(Nc1ccc(Cl)cc1)c1ccncc1 (single isomer, unassigned; (-)) [Compound 8, (-) N-(4-Chlorophenyl)-1-(4-pyridyl)propylamine]",% protection (lowest and highest) during 4 hour period,"[1]; rat, p.o., 30 mg/kg, 5 time points 0.25-4 hours, MES, listed as (4) (-) Enantiomer",25-100%
same,TD50,[4],269.4 mg/kg
same,ED50,[3]; listed as (4) (-) Enantiomer,118.9 mg/kg
same,"P.I. (protective index, TD50/ED50)",[3]; listed as (4) (-) Enantiomer,2.3
"CCC(Nc1ccc(Cl)c(Cl)c1)c1ccncc1 (single isomer, unassigned; (-)) [Compound 10, (-) N-(3,4-Dichlorophenyl)-1-(4-pyridyl)propylamine]",% protection (lowest and highest) during 4 hour period,"[1]; rat, p.o., 30 mg/kg, 5 time points 0.25-4 hours, MES, listed as (5) (-) Enantiomer",25-100%
same,TD50,[4],275.2 mg/kg
same,ED50,[3]; listed as (5) (-) Enantiomer,117.3 mg/kg
same,"P.I. (protective index, TD50/ED50)",[3]; listed as (5) (-) Enantiomer,2.3
"CC(Nc1ccc(Br)cc1)c1ccncc1 (single isomer, unassigned; (-)) [Compound 12, (-) N-(4-Bromophenyl)-1-(4-pyridyl)ethylamine]",% protection (lowest and highest) during 4 hour period,"[1]; rat, p.o., 30 mg/kg, 5 time points 0.25-4 hours, MES",25-75%
same,TD50,[4],287.6 mg/kg
same,ED50,[3]; listed as (6) (-) Enantiomer,85.5 mg/kg
same,"P.I. (protective index, TD50/ED50)",[3]; listed as (6) (-) Enantiomer,3.4

# From patent publication US6083964A, “Optical resolution of racemic aminoalkylpyridine anticonvulsants and (+) aminoalkylpyridine enantiomers as highly potent orally effective anticonvulsant drugs and excitatory amino acid antagonists” (K and K Biosciences, Inc., priority 1999, dated 2000)
